Measurements from the CheMixHub viscosity set.
± gives the uncertainty stated by the source.

Experiment: xn = mol fraction of the nth substance listed
Details: 101.33 kPa

NCCCN + OCCOCCOCCOCCO gave a viscosity (293.15 K, x2 = 0.0197) of 2.27 ± 0.07 mPa·s, a viscosity (293.15 K, x2 = 0.0407) of 2.72 ± 0.08 mPa·s and a viscosity (293.15 K, x2 = 0.0631) of 3.37 ± 0.1 mPa·s. It also gave a viscosity (293.15 K, x2 = 0.0871) of 4.07 ± 0.13 mPa·s, a viscosity (293.15 K, x2 = 0.1129) of 5.06 ± 0.16 mPa·s and a viscosity (293.15 K, x2 = 0.1406) of 6.38 ± 0.2 mPa·s. It also gave a viscosity (293.15 K, x2 = 0.1705) of 8.2 ± 0.26 mPa·s, a viscosity (293.15 K, x2 = 0.2028) of 10.6 ± 0.33 mPa·s and a viscosity (293.15 K, x2 = 0.238) of 13.9 ± 0.44 mPa·s. The viscosity (293.15 K, x2 = 0.2762) was 18.5 ± 0.59 mPa·s, the viscosity (293.15 K, x2 = 0.3181) was 24.6 ± 0.79 mPa·s and the viscosity (293.15 K, x2 = 0.3641) was 33.1 ± 1.1 mPa·s. For the same compound, the viscosity (293.15 K, x2 = 0.4148) was 43.8 ± 1.4 mPa·s, the viscosity (293.15 K, x2 = 0.4711) was 57.6 ± 1.8 mPa·s and the viscosity (293.15 K, x2 = 0.5338) was 71.2 ± 2.2 mPa·s. For the same compound, the viscosity (293.15 K, x2 = 0.6042) was 81.6 ± 2.6 mPa·s, the viscosity (293.15 K, x2 = 0.6838) was 85.1 ± 2.7 mPa·s and the viscosity (293.15 K, x2 = 0.7745) was 81.2 ± 2.6 mPa·s. It also gave a viscosity (293.15 K, x2 = 0.8788) of 71.9 ± 2.2 mPa·s, a viscosity (298.15 K, x2 = 0.0197) of 1.95 ± 0.06 mPa·s and a viscosity (298.15 K, x2 = 0.0407) of 2.32 ± 0.07 mPa·s. It also gave a viscosity (298.15 K, x2 = 0.0631) of 2.84 ± 0.09 mPa·s, a viscosity (298.15 K, x2 = 0.0871) of 3.41 ± 0.11 mPa·s and a viscosity (298.15 K, x2 = 0.1129) of 4.2 ± 0.13 mPa·s. It also gave a viscosity (298.15 K, x2 = 0.1406) of 5.25 ± 0.16 mPa·s, a viscosity (298.15 K, x2 = 0.1705) of 6.64 ± 0.21 mPa·s and a viscosity (298.15 K, x2 = 0.2028) of 8.44 ± 0.26 mPa·s. The viscosity (298.15 K, x2 = 0.238) was 10.9 ± 0.34 mPa·s, the viscosity (298.15 K, x2 = 0.2762) was 14.2 ± 0.45 mPa·s and the viscosity (298.15 K, x2 = 0.3181) was 18.7 ± 0.6 mPa·s. The viscosity (298.15 K, x2 = 0.3641) was 24.9 ± 0.79 mPa·s, the viscosity (298.15 K, x2 = 0.4148) was 32.6 ± 1 mPa·s and the viscosity (298.15 K, x2 = 0.4711) was 41.4 ± 1.3 mPa·s. It also gave a viscosity (298.15 K, x2 = 0.5338) of 50.7 ± 1.6 mPa·s, a viscosity (298.15 K, x2 = 0.6042) of 57.9 ± 1.8 mPa·s and a viscosity (298.15 K, x2 = 0.6838) of 60.9 ± 1.9 mPa·s. For the same compound, the viscosity (298.15 K, x2 = 0.7745) was 59.1 ± 1.8 mPa·s, the viscosity (298.15 K, x2 = 0.8788) was 53.1 ± 1.6 mPa·s and the viscosity (303.15 K, x2 = 0.0197) was 1.76 ± 0.05 mPa·s. It also gave a viscosity (303.15 K, x2 = 0.0407) of 2.08 ± 0.06 mPa·s, a viscosity (303.15 K, x2 = 0.0631) of 2.52 ± 0.08 mPa·s and a viscosity (303.15 K, x2 = 0.0871) of 2.99 ± 0.09 mPa·s. The viscosity (303.15 K, x2 = 0.1129) was 3.64 ± 0.11 mPa·s, the viscosity (303.15 K, x2 = 0.1406) was 4.48 ± 0.14 mPa·s and the viscosity (303.15 K, x2 = 0.1705) was 5.62 ± 0.18 mPa·s. The viscosity (303.15 K, x2 = 0.2028) was 7.08 ± 0.22 mPa·s, the viscosity (303.15 K, x2 = 0.238) was 9.08 ± 0.29 mPa·s and the viscosity (303.15 K, x2 = 0.2762) was 11.6 ± 0.37 mPa·s. It also gave a viscosity (303.15 K, x2 = 0.3181) of 15.1 ± 0.48 mPa·s, a viscosity (303.15 K, x2 = 0.3641) of 19.6 ± 0.62 mPa·s and a viscosity (303.15 K, x2 = 0.4148) of 25.2 ± 0.8 mPa·s. It also gave a viscosity (303.15 K, x2 = 0.4711) of 31.7 ± 1 mPa·s, a viscosity (303.15 K, x2 = 0.5338) of 38.4 ± 1.2 mPa·s and a viscosity (303.15 K, x2 = 0.6042) of 43.7 ± 1.4 mPa·s. The viscosity (303.15 K, x2 = 0.6838) was 46 ± 1.4 mPa·s, the viscosity (303.15 K, x2 = 0.7745) was 45 ± 1.4 mPa·s and the viscosity (303.15 K, x2 = 0.8788) was 41 ± 1.3 mPa·s. It also gave a viscosity (308.15 K, x2 = 0.0197) of 1.6 ± 0.05 mPa·s, a viscosity (308.15 K, x2 = 0.0407) of 1.86 ± 0.06 mPa·s and a viscosity (308.15 K, x2 = 0.0631) of 2.25 ± 0.07 mPa·s. The viscosity (308.15 K, x2 = 0.0871) was 2.64 ± 0.08 mPa·s, the viscosity (308.15 K, x2 = 0.1129) was 3.21 ± 0.1 mPa·s and the viscosity (308.15 K, x2 = 0.1406) was 3.92 ± 0.12 mPa·s. It also gave a viscosity (308.15 K, x2 = 0.1705) of 4.86 ± 0.15 mPa·s, a viscosity (308.15 K, x2 = 0.2028) of 6.05 ± 0.19 mPa·s and a viscosity (308.15 K, x2 = 0.238) of 7.62 ± 0.24 mPa·s. It also gave a viscosity (308.15 K, x2 = 0.2762) of 9.67 ± 0.3 mPa·s, a viscosity (308.15 K, x2 = 0.3181) of 12.4 ± 0.39 mPa·s and a viscosity (308.15 K, x2 = 0.3641) of 15.8 ± 0.5 mPa·s. It also gave a viscosity (308.15 K, x2 = 0.4148) of 20.1 ± 0.63 mPa·s, a viscosity (308.15 K, x2 = 0.4711) of 24.9 ± 0.78 mPa·s and a viscosity (308.15 K, x2 = 0.5338) of 30 ± 0.93 mPa·s. The viscosity (308.15 K, x2 = 0.6042) was 34 ± 1.1 mPa·s, the viscosity (308.15 K, x2 = 0.6838) was 36 ± 1.1 mPa·s and the viscosity (308.15 K, x2 = 0.7745) was 35.5 ± 1.1 mPa·s. It also gave a viscosity (308.15 K, x2 = 0.8788) of 32.7 ± 1 mPa·s, a viscosity (313.15 K, x2 = 0.0197) of 1.31 ± 0.04 mPa·s and a viscosity (313.15 K, x2 = 0.0631) of 1.97 ± 0.06 mPa·s. The viscosity (313.15 K, x2 = 0.0871) was 2.34 ± 0.07 mPa·s, the viscosity (313.15 K, x2 = 0.1129) was 2.83 ± 0.09 mPa·s and the viscosity (313.15 K, x2 = 0.1406) was 3.42 ± 0.11 mPa·s. The viscosity (313.15 K, x2 = 0.1705) was 4.2 ± 0.13 mPa·s, the viscosity (313.15 K, x2 = 0.2028) was 5.2 ± 0.16 mPa·s and the viscosity (313.15 K, x2 = 0.238) was 6.48 ± 0.2 mPa·s. It also gave a viscosity (313.15 K, x2 = 0.2762) of 8.11 ± 0.26 mPa·s, a viscosity (313.15 K, x2 = 0.3181) of 10.3 ± 0.32 mPa·s and a viscosity (313.15 K, x2 = 0.3641) of 12.8 ± 0.4 mPa·s. The viscosity (313.15 K, x2 = 0.4148) was 16.1 ± 0.51 mPa·s, the viscosity (313.15 K, x2 = 0.4711) was 19.7 ± 0.62 mPa·s and the viscosity (313.15 K, x2 = 0.5338) was 23.5 ± 0.73 mPa·s. For the same compound, the viscosity (313.15 K, x2 = 0.6042) was 26.8 ± 0.83 mPa·s, the viscosity (313.15 K, x2 = 0.6838) was 28.4 ± 0.87 mPa·s and the viscosity (313.15 K, x2 = 0.7745) was 28.3 ± 0.87 mPa·s. It also gave a viscosity (313.15 K, x2 = 0.8788) of 26.4 ± 0.81 mPa·s, a viscosity (318.15 K, x2 = 0.0197) of 1.26 ± 0.04 mPa·s and a viscosity (318.15 K, x2 = 0.0407) of 1.48 ± 0.05 mPa·s. For the same compound, the viscosity (318.15 K, x2 = 0.0631) was 1.75 ± 0.05 mPa·s, the viscosity (318.15 K, x2 = 0.0871) was 2.08 ± 0.06 mPa·s and the viscosity (318.15 K, x2 = 0.1129) was 2.48 ± 0.08 mPa·s. The viscosity (318.15 K, x2 = 0.1406) was 3 ± 0.09 mPa·s, the viscosity (318.15 K, x2 = 0.1705) was 3.62 ± 0.11 mPa·s and the viscosity (318.15 K, x2 = 0.2028) was 4.42 ± 0.14 mPa·s. It also gave a viscosity (318.15 K, x2 = 0.238) of 5.45 ± 0.17 mPa·s, a viscosity (318.15 K, x2 = 0.2762) of 6.84 ± 0.21 mPa·s and a viscosity (318.15 K, x2 = 0.3181) of 8.42 ± 0.26 mPa·s. The viscosity (318.15 K, x2 = 0.3641) was 10.5 ± 0.33 mPa·s, the viscosity (318.15 K, x2 = 0.4148) was 13 ± 0.41 mPa·s and the viscosity (318.15 K, x2 = 0.4711) was 15.8 ± 0.49 mPa·s. For the same compound, the viscosity (318.15 K, x2 = 0.5338) was 18.7 ± 0.58 mPa·s, the viscosity (318.15 K, x2 = 0.6042) was 21 ± 0.65 mPa·s and the viscosity (318.15 K, x2 = 0.6838) was 22.4 ± 0.69 mPa·s. For the same compound, the viscosity (318.15 K, x2 = 0.7745) was 22.5 ± 0.69 mPa·s and the viscosity (318.15 K, x2 = 0.8788) was 21.1 ± 0.65 mPa·s.
